Like-named read-outs stand apart in the source and are kept apart here.
Tests used:
[1] = target: C. elegans (N2) complex I (NADH:ubiquinone oxidoreductase) (Caenorhabditis elegans, UniProt P24887+Q93873+Q94360); assay: biochemical; assay type: biochemical
Procedure, shortened: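 Complex I rate: initial linear slope of A600 over 15 min, expressed as percent of solvent control. Triple freeze-thawed mitochondria (0.2 mg/mL) in KPi pH 7.5, BSA 3 mg/mL, NADH 80 μM, decylubiquinone 60 μM, DCIP 160 μM, antimycin A, KCN.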

[2] = target: B. taurus (heart) complex I (Bos taurus, UniProt P03887+P17694+P42026); assay: biochemical; assay type: biochemical
Procedure, shortened: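 Complex I activity followed as DCIP reduction (600 nm, 30 s reads, 15 min) with 80 μM NADH and 60 μM decylubiquinone in 25 mM KPi pH 7.5 containing 2 μM antimycin A and 2 mM KCN. Freeze-thawed mouse or bovine heart mitochondria at 0.2 mg/mL; initial-rate percent of solvent control, single-point 100 μM or dose-response.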

L1 wild-type C. elegans = assay: microbe, parasite or virus in culture; details: Caenorhabditis elegans, read-out: C. elegans KCN Survival Assay LC50, estimated from fitted dose-response curves; mean of at least two biological replicates

B. taurus (heart) complex I, sequence (P03887 whole entry): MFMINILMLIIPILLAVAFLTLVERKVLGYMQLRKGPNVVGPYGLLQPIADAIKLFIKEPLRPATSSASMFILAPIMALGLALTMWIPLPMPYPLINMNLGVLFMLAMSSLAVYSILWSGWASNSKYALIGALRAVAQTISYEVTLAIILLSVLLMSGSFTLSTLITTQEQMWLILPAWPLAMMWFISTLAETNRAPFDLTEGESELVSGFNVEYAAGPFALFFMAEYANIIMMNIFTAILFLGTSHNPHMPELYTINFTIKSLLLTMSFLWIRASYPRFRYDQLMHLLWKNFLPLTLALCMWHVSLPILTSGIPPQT
B. taurus (heart) complex I, sequence (P17694 34-463): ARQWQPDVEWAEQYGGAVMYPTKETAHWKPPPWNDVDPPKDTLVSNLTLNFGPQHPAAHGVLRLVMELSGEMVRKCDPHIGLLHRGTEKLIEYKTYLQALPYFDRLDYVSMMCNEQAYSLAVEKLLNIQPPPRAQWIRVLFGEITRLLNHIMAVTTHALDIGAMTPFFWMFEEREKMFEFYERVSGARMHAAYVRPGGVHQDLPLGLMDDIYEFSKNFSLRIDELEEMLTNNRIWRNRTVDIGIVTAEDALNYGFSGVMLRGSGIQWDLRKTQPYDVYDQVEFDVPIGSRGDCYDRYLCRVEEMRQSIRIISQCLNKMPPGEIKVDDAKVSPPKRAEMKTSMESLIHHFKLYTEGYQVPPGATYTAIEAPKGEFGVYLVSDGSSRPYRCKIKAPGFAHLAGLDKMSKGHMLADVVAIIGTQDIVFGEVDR
B. taurus (heart) complex I, sequence (P42026 38-216): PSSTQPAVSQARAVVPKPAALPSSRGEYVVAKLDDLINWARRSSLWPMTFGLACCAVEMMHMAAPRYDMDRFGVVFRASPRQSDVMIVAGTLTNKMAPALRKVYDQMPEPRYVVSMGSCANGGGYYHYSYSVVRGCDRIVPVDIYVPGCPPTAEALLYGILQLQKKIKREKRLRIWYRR
C. elegans (N2) complex I (NADH:ubiquinone oxidoreductase), sequence (Q94360 17-199): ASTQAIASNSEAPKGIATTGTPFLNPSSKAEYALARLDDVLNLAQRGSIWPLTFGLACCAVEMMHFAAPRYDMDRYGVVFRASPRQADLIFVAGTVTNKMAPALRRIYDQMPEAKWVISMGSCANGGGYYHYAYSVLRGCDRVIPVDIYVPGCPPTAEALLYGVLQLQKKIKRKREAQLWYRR
C. elegans (N2) complex I (NADH:ubiquinone oxidoreductase), sequence (P24887 whole entry): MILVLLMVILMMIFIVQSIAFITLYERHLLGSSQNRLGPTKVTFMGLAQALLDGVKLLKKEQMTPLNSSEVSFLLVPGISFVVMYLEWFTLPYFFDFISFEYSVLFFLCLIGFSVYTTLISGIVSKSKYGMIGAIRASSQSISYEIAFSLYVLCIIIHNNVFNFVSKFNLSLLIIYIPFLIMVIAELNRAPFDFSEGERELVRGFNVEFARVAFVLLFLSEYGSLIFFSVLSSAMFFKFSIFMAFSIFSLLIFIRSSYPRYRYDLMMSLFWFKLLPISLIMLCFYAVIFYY
C. elegans (N2) complex I (NADH:ubiquinone oxidoreductase), sequence (Q93873 31-482): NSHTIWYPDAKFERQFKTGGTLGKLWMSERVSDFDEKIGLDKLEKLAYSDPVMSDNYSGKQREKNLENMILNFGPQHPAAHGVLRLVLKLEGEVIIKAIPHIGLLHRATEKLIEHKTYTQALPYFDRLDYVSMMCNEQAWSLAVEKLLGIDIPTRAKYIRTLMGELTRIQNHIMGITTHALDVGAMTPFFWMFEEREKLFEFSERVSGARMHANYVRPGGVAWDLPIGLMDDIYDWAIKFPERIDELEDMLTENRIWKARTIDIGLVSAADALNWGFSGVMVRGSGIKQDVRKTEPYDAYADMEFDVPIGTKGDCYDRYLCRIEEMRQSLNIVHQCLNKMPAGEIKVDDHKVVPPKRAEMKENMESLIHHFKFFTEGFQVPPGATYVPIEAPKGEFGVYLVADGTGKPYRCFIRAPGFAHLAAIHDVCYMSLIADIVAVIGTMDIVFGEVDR

Cc1ccccc1OCCCCn1cnc2ccccc21 [Compound 7732524] was tested, and the remaining activity at 0.0001 µM ([1]; C. elegans mitochondria, 0.0001 µM, Mean, read-out: in vitro complex I activity relative to solvent control) was 109%, the remaining activity at 0.0005 µM ([1]; C. elegans mitochondria, 0.0005 µM, Mean, read-out: in vitro complex I activity relative to solvent control) was 117% and the remaining activity at 0.001 µM ([1]; C. elegans mitochondria, 0.001 µM, Mean, read-out: in vitro complex I activity relative to solvent control) was 115%. For the same compound, the remaining activity at 0.0025 µM ([1]; C. elegans mitochondria, 0.0025 µM, Mean, read-out: in vitro complex I activity relative to solvent control) was 106%, the remaining activity at 0.005 µM ([1]; C. elegans mitochondria, 0.005 µM, Mean, read-out: in vitro complex I activity relative to solvent control) was 87.1% and the remaining activity at 0.013 µM ([1]; C. elegans mitochondria, 0.013 µM, Mean, read-out: in vitro complex I activity relative to solvent control) was 95.4%. The remaining activity at 0.025 µM ([1]; C. elegans mitochondria, 0.025 µM, Mean, read-out: in vitro complex I activity relative to solvent control) was 84.9%, the remaining activity at 0.063 µM ([1]; C. elegans mitochondria, 0.063 µM, Mean, read-out: in vitro complex I activity relative to solvent control) was 60.5% and the remaining activity at 0.063 µM ([1]; C. elegans mitochondria, 0.063 µM, single replicate, read-out: in vitro complex I activity relative to solvent control) was 65%. For the same compound, the remaining activity at 0.125 µM ([1]; C. elegans mitochondria, 0.125 µM, Mean, read-out: in vitro complex I activity relative to solvent control) was 45.4%, the remaining activity at 0.125 µM ([1]; C. elegans mitochondria, 0.125 µM, single replicate, read-out: in vitro complex I activity relative to solvent control) was 44.7% and the remaining activity at 0.313 µM ([1]; C. elegans mitochondria, 0.313 µM, Mean, read-out: in vitro complex I activity relative to solvent control) was 25.3%. It also gave a remaining activity at 0.313 µM ([1]; C. elegans mitochondria, 0.313 µM, single replicate, read-out: in vitro complex I activity relative to solvent control) of 21%, a remaining activity at 0.625 µM ([1]; C. elegans mitochondria, 0.625 µM, Mean, read-out: in vitro complex I activity relative to solvent control) of 10.1% and a remaining activity at 0.625 µM ([1]; C. elegans mitochondria, 0.625 µM, single replicate, read-out: in vitro complex I activity relative to solvent control) of 12.2%. It also gave a remaining activity at 1.5 µM ([1]; C. elegans mitochondria, 1.5 µM, Mean, read-out: in vitro complex I activity relative to solvent control) of 2.78%, a remaining activity at 3 µM ([1]; C. elegans mitochondria, 3 µM, Mean, read-out: in vitro complex I activity relative to solvent control) of 0.645% and a remaining activity at 15 µM ([1]; C. elegans mitochondria, 15 µM, Mean, read-out: in vitro complex I activity relative to solvent control) of 0.827%. The remaining activity at 37.5 µM ([1]; C. elegans mitochondria, 37.5 µM, Mean, read-out: in vitro complex I activity relative to solvent control) was 0.871%, the remaining activity at 75 µM ([1]; C. elegans mitochondria, 75 µM, Mean, read-out: in vitro complex I activity relative to solvent control) was 6.44% and the activity at 0.0001 µM ([1]; Dose 0.0001 µM, read-out: C. elegans mitochondrial complex I activity) was 130%. The activity at 0.0005 µM ([1]; Dose 0.0005 µM, read-out: C. elegans mitochondrial complex I activity) was 145%, the activity at 0.001 µM ([1]; Dose 0.001 µM, read-out: C. elegans mitochondrial complex I activity) was 142% and the activity at 0.0025 µM ([1]; Dose 0.0025 µM, read-out: C. elegans mitochondrial complex I activity) was 138%. For the same compound, the activity at 0.005 µM ([1]; Dose 0.005 µM, read-out: C. elegans mitochondrial complex I activity) was 126%, the activity at 0.013 µM ([1]; Dose 0.013 µM, read-out: C. elegans mitochondrial complex I activity) was 120% and the activity at 0.025 µM ([1]; Dose 0.025 µM, read-out: C. elegans mitochondrial complex I activity) was 94.3%. It also gave an activity at 0.063 µM ([1]; Dose 0.063 µM, read-out: C. elegans mitochondrial complex I activity) of 78.2%, an activity at 0.125 µM ([1]; Dose 0.125 µM, read-out: C. elegans mitochondrial complex I activity) of 53.5% and an activity at 0.313 µM ([1]; Dose 0.313 µM, read-out: C. elegans mitochondrial complex I activity) of 30.1%. It also gave an activity at 0.625 µM ([1]; Dose 0.625 µM, read-out: C. elegans mitochondrial complex I activity) of 10.6%, an activity at 1.5 µM ([1]; Dose 1.5 µM, read-out: C. elegans mitochondrial complex I activity) of 3.27% and an activity at 3 µM ([1]; Dose 3 µM, read-out: C. elegans mitochondrial complex I activity) of 1.97%. The activity at 15 µM ([1]; Dose 15 µM, read-out: C. elegans mitochondrial complex I activity) was 1.08%, the activity at 37.5 µM ([1]; Dose 37.5 µM, read-out: C. elegans mitochondrial complex I activity) was 3.31% and the activity at 75 µM ([1]; Dose 75 µM, read-out: C. elegans mitochondrial complex I activity) was 6.44%. The remaining activity at 0.0001 µM ([1]; dose 0.0001 µM, wild-type C. elegans, mean of replicates, read-out: in vitro complex I activity relative to solvent control, Mean) was 109%, the remaining activity at 0.0005 µM ([1]; dose 0.0005 µM, wild-type C. elegans, mean of replicates, read-out: in vitro complex I activity relative to solvent control, Mean) was 117% and the remaining activity at 0.001 µM ([1]; dose 0.001 µM, wild-type C. elegans, mean of replicates, read-out: in vitro complex I activity relative to solvent control, Mean) was 115%. For the same compound, the remaining activity at 0.0025 µM ([1]; dose 0.0025 µM, wild-type C. elegans, mean of replicates, read-out: in vitro complex I activity relative to solvent control, Mean) was 106%, the remaining activity at 0.005 µM ([1]; dose 0.005 µM, wild-type C. elegans, mean of replicates, read-out: in vitro complex I activity relative to solvent control, Mean) was 87.1% and the remaining activity at 0.013 µM ([1]; dose 0.013 µM, wild-type C. elegans, mean of replicates, read-out: in vitro complex I activity relative to solvent control, Mean) was 95.4%. The remaining activity at 0.025 µM ([1]; dose 0.025 µM, wild-type C. elegans, mean of replicates, read-out: in vitro complex I activity relative to solvent control, Mean) was 84.9%, the remaining activity at 0.063 µM ([1]; dose 0.063 µM, wild-type C. elegans, mean of replicates, read-out: in vitro complex I activity relative to solvent control, Mean) was 60.5% and the remaining activity at 0.063 µM ([1]; dose 0.063 µM, wild-type C. elegans, single replicate, read-out: in vitro complex I activity relative to solvent control, individual replicate) was 65%. The remaining activity at 0.125 µM ([1]; dose 0.125 µM, wild-type C. elegans, mean of replicates, read-out: in vitro complex I activity relative to solvent control, Mean) was 45.4%, the remaining activity at 0.125 µM ([1]; dose 0.125 µM, wild-type C. elegans, single replicate, read-out: in vitro complex I activity relative to solvent control, individual replicate) was 44.7% and the remaining activity at 0.313 µM ([1]; dose 0.313 µM, wild-type C. elegans, mean of replicates, read-out: in vitro complex I activity relative to solvent control, Mean) was 25.3%. For the same compound, the remaining activity at 0.313 µM ([1]; dose 0.313 µM, wild-type C. elegans, single replicate, read-out: in vitro complex I activity relative to solvent control, individual replicate) was 21%, the remaining activity at 0.625 µM ([1]; dose 0.625 µM, wild-type C. elegans, mean of replicates, read-out: in vitro complex I activity relative to solvent control, Mean) was 10.1% and the remaining activity at 0.625 µM ([1]; dose 0.625 µM, wild-type C. elegans, single replicate, read-out: in vitro complex I activity relative to solvent control, individual replicate) was 12.2%. For the same compound, the remaining activity at 1.5 µM ([1]; dose 1.5 µM, wild-type C. elegans, mean of replicates, read-out: in vitro complex I activity relative to solvent control, Mean) was 2.78%, the remaining activity at 3 µM ([1]; dose 3 µM, wild-type C. elegans, mean of replicates, read-out: in vitro complex I activity relative to solvent control, Mean) was 0.645% and the remaining activity at 15 µM ([1]; dose 15 µM, wild-type C. elegans, mean of replicates, read-out: in vitro complex I activity relative to solvent control, Mean) was 0.827%. For the same compound, the remaining activity at 37.5 µM ([1]; dose 37.5 µM, wild-type C. elegans, mean of replicates, read-out: in vitro complex I activity relative to solvent control, Mean) was 0.871%, the remaining activity at 75 µM ([1]; dose 75 µM, wild-type C. elegans, mean of replicates, read-out: in vitro complex I activity relative to solvent control, Mean) was 6.44% and the IC50 ([1]; in vitro complex I dose response on C. elegans mitochondria, average of at least two biological replicates, fit in R (DRC), read-out: IC50 C. elegans complex I) was 140 nM. The “Log IC50 C. elegans complex I” value ([1]; log10 of IC50 in µM, C. elegans mitochondria) was -0.85 µM, the IC50 ([1]; wild-type (N2) mitochondria, read-out: C. elegans Complex I IC50) was 140 nM and the IC50 ([1]; wild-type (N2) mitochondria, read-out: C. elegans complex I IC50) was 104 nM. For the same compound, the IC50 ([1]; wild-type C. elegans mitochondria, estimated from fitted dose-response curves, read-out: C. elegans Complex I IC50) was 140 nM, the IC50 ([2]; B. taurus heart mitochondria, estimated from fitted dose-response curves, read-out: B. taurus Complex I IC50) was 310 nM and the activity at 0.0001 µM ([2]; Dose 0.0001 µM, read-out: B. taurus mitochondrial complex I activity) was 96.6%. For the same compound, the activity at 0.0005 µM ([2]; Dose 0.0005 µM, read-out: B. taurus mitochondrial complex I activity) was 102%, the activity at 0.001 µM ([2]; Dose 0.001 µM, read-out: B. taurus mitochondrial complex I activity) was 97% and the activity at 0.0025 µM ([2]; Dose 0.0025 µM, read-out: B. taurus mitochondrial complex I activity) was 93.8%. For the same compound, the activity at 0.005 µM ([2]; Dose 0.005 µM, read-out: B. taurus mitochondrial complex I activity) was 78.2%, the activity at 0.013 µM ([2]; Dose 0.013 µM, read-out: B. taurus mitochondrial complex I activity) was 91.3% and the activity at 0.025 µM ([2]; Dose 0.025 µM, read-out: B. taurus mitochondrial complex I activity) was 85.2%. It also gave an activity at 0.063 µM ([2]; Dose 0.063 µM, read-out: B. taurus mitochondrial complex I activity) of 72.1%, an activity at 0.125 µM ([2]; Dose 0.125 µM, read-out: B. taurus mitochondrial complex I activity) of 69.1% and an activity at 0.313 µM ([2]; Dose 0.313 µM, read-out: B. taurus mitochondrial complex I activity) of 48.9%. For the same compound, the activity at 0.625 µM ([2]; Dose 0.625 µM, read-out: B. taurus mitochondrial complex I activity) was 30.4%, the activity at 1.5 µM ([2]; Dose 1.5 µM, read-out: B. taurus mitochondrial complex I activity) was 15.7% and the activity at 3 µM ([2]; Dose 3 µM, read-out: B. taurus mitochondrial complex I activity) was 9.12%. It also gave an activity at 15 µM ([2]; Dose 15 µM, read-out: B. taurus mitochondrial complex I activity) of 0.75%, an activity at 37.5 µM ([2]; Dose 37.5 µM, read-out: B. taurus mitochondrial complex I activity) of 1.46% and an activity at 75 µM ([2]; Dose 75 µM, read-out: B. taurus mitochondrial complex I activity) of 1.41%. The “Log IC50 B. taurus complex I” value ([2]; log10 of IC50 in µM, B. taurus mitochondria) was -0.51 µM and the LC50 (L1 wild-type C. elegans) was 6370 nM.

Source: PMC11079024, “Identification of a family of species-selective complex I inhibitors as potential anthelmintics” (Nature Communications, 2024)
